The assay has as its target T1, Thermolysin (Bacillus thermoproteolyticus, UniProt P00800).
T1 sequence (P00800 whole entry): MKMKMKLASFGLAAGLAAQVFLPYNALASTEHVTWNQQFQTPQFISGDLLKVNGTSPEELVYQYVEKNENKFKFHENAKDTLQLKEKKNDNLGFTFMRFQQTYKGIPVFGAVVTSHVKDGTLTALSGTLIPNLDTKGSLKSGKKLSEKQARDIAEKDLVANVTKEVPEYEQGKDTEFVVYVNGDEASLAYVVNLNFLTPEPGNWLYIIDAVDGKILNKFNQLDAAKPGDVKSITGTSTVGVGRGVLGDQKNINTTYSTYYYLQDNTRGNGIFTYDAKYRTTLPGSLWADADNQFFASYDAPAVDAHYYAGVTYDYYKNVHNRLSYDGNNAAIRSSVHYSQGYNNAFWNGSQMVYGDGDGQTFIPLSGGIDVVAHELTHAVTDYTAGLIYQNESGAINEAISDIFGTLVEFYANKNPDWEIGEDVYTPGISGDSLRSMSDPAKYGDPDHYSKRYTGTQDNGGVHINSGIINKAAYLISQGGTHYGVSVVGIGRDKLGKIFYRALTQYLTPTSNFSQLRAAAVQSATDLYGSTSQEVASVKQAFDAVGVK
Kind of assay: Binding affinity to Bacillus thermoproteolyticus thermolysin by UV-VIS spectrophotometric analysis in presence of 2-furanacryloyl-Gly-Leu-NH2.
Consider `CC(C)C[C@H](NP(=O)(O)CNC(=O)OCc1ccccc1)C(=O)NCC(=O)O`, for which the Ki worked out at 472 nM.
Under `CNC(=O)[C@H](CC(C)C)NP(=O)(O)CNC(=O)OCc1ccccc1` stands 902 nM; under `CCNC(=O)[C@H](CC(C)C)NP(=O)(O)CNC(=O)OCc1ccccc1`, 289 nM.
In the case of `CC(C)C[C@H](NP(=O)(O)CNC(=O)OCc1ccccc1)C(=O)N[C@@H](C)C(=O)O`, the Ki amounted to 19.1 nM.

For the origin of these results see ChEMBL document CHEMBL2169829, “Water mediated ligand functional group cooperativity: the contribution of a methyl group to binding affinity is enhanced by a COO(-) group through changes in the structure and thermodynamics of the hydration waters of ligand-thermolysin complexes” (J Med Chem, 2012).
